Measured values taken from ChEMBL document CHEMBL1201862, “PubChem BioAssay data set” (2004).
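1) Cells in 96-well plates. 2) Compound, 48 h, 5 concentrations. 3) Linear interpolation between surrounding doses. 4) Unreached endpoint = highest concentration. At the GI50, growth is halved.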 The source made the active and inactive calls. Rule as the data show it: active = GI50 up to about 1.1 µM and inactive = higher.

What was measured:
Assay in all cases: growth of human tumour cells (NCI), 48 h
[1] = tested on: SF-295
[2] = tested on: K562
[3] = tested on: SK-MEL-28
[4] = tested on: HCC 2998
[5] = tested on: SN12C
[6] = tested on: HCT-15
[7] = tested on: TK-10
[8] = tested on: HOP-92
[9] = tested on: OVCAR-3
[10] = tested on: IGROV-1
[11] = tested on: UACC-62
[12] = tested on: HCT-116
[13] = tested on: U-251
[14] = tested on: Malme-3M
[15] = tested on: OVCAR-8
[16] = tested on: A498
[17] = tested on: OVCAR-5
[18] = tested on: CCRF-CEM
[19] = tested on: SNB-75
[20] = tested on: RXF 393

## Cn1c(=O)c2nc(N3CCOCC3)cnc2n(C)c1=O
[1]
  GI50: > 100 µM (inactive)
[2]
  GI50: > 100 µM (inactive)
[3]
  GI50: > 100 µM (inactive)
[4]
  GI50: > 100 µM (inactive)
[5]
  GI50: > 100 µM (inactive)
[6]
  GI50: > 100 µM
[7]
  GI50: > 100 µM (inactive)
[8]
  GI50: > 100 µM (inactive)
[9]
  GI50: > 100 µM (inactive)
[10]
  GI50: > 100 µM (inactive)
[11]
  GI50: > 100 µM (inactive)
[12]
  GI50: > 100 µM (inactive)
[13]
  GI50: > 100 µM (inactive)
[14]
  GI50: > 100 µM (inactive)
[15]
  GI50: > 100 µM (inactive)
[16]
  GI50: > 100 µM (inactive)
[17]
  GI50: > 100 µM (inactive)
[18]
  GI50: > 100 µM (inactive)
[19]
  GI50: > 100 µM (inactive)

## C=CCN(N=O)C(=O)N(CCC)CCCCC(NC(C)=O)C(=O)NCc1ccccc1 (configuration not stated)
[1]
  GI50: > 100 µM (inactive)
[2]
  GI50: 51.6 µM (inactive)
[3]
  GI50: > 100 µM (inactive)
[5]
  GI50: > 100 µM (inactive)
[6]
  GI50: > 100 µM
[7]
  GI50: > 100 µM (inactive)
[8]
  GI50: 23.2 µM (inactive)
[9]
  GI50: 75.5 µM (inactive)
[10]
  GI50: > 100 µM (inactive)
[11]
  GI50: > 100 µM (inactive)
[13]
  GI50: > 100 µM (inactive)
[14]
  GI50: > 100 µM (inactive)
[15]
  GI50: > 100 µM (inactive)
[16]
  GI50: > 100 µM (inactive)
[17]
  GI50: > 100 µM (inactive)
[20]
  GI50: 38.1 µM (inactive)
[18]
  GI50: 33.7 µM (inactive)
[19]
  GI50: 71.8 µM (inactive)

## CC1OC2=N[C@@H]1C(=O)N[C@@H](Cc1ccccc1)C1=N[C@H](C(=O)N[C@@H](Cc3ccccc3)C3=N[C@H](C(=O)N[C@H]2Cc2ccccc2)C(C)O3)C(C)O1 (some centres not stated)
[1]
  GI50: 30.7 µM (inactive)
[2]
  GI50: 26.7 µM (inactive)
[3]
  GI50: 26.5 µM (inactive)
[4]
  GI50: 34.5 µM (inactive)
[5]
  GI50: 36 µM (inactive)
[6]
  GI50: 30.6 µM
[7]
  GI50: 26.5 µM (inactive)
[8]
  GI50: 18.9 µM (inactive)
[9]
  GI50: 28.2 µM (inactive)
[10]
  GI50: 29.4 µM (inactive)
[11]
  GI50: 30.8 µM (inactive)
[12]
  GI50: 23.3 µM (inactive)
[14]
  GI50: 22.4 µM (inactive)
[15]
  GI50: 26.4 µM (inactive)
[16]
  GI50: 29.9 µM (inactive)
[17]
  GI50: 30.3 µM (inactive)
[20]
  GI50: 31.1 µM (inactive)

## O=C1CCCCC[C@]12SC[C@H]1CON=C12
[1]
  GI50: > 100 µM (inactive)
[2]
  GI50: 42.6 µM (inactive)
[3]
  GI50: 27.8 µM (inactive)
[4]
  GI50: 29.1 µM (inactive)
[5]
  GI50: 23.1 µM (inactive)
[6]
  GI50: 31.3 µM
[7]
  GI50: > 100 µM (inactive)
[8]
  GI50: 12.9 µM (inactive)
[9]
  GI50: 89.7 µM (inactive)
[10]
  GI50: 47.5 µM (inactive)
[11]
  GI50: 14.5 µM (inactive)
[12]
  GI50: 35.2 µM (inactive)
[13]
  GI50: 12.3 µM (inactive)
[14]
  GI50: 18.8 µM (inactive)
[15]
  GI50: 65.8 µM (inactive)
[16]
  GI50: 7.16 µM (inactive)
[17]
  GI50: > 100 µM (inactive)
[20]
  GI50: 21.1 µM (inactive)
[18]
  GI50: 21.9 µM (inactive)

## COC(=O)c1c(O)ccc2c1c1c(n2Cc2cccc(C)c2)C(=O)c2ccccc2C1
[1]
  GI50: 24.9 µM (inactive)
[2]
  GI50: 29.4 µM (inactive)
[3]
  GI50: 0.295 µM (active)
[5]
  GI50: 12.9 µM (inactive)
[6]
  GI50: 19.7 µM
[7]
  GI50: 22 µM (inactive)
[8]
  GI50: 42.6 µM (inactive)
[9]
  GI50: 12.6 µM (inactive)
[10]
  GI50: 42.7 µM (inactive)
[11]
  GI50: 32.6 µM (inactive)
[12]
  GI50: 7.85 µM (inactive)
[13]
  GI50: 14.5 µM (inactive)
[14]
  GI50: 13.5 µM (inactive)
[15]
  GI50: 26.2 µM (inactive)
[16]
  GI50: 40.8 µM (inactive)
[17]
  GI50: 22 µM (inactive)
[20]
  GI50: 11.9 µM (inactive)
[18]
  GI50: 12.4 µM (inactive)

## COc1ccc(C2C(Cl)C(=O)N2NC(=O)c2ccccc2O)cc1 (configuration not stated)
[1]
  GI50: > 100 µM (inactive)
[2]
  GI50: > 100 µM (inactive)
[3]
  GI50: > 100 µM (inactive)
[5]
  GI50: > 100 µM (inactive)
[7]
  GI50: > 100 µM (inactive)
[8]
  GI50: > 100 µM (inactive)
[9]
  GI50: > 100 µM (inactive)
[10]
  GI50: > 100 µM (inactive)
[11]
  GI50: > 100 µM (inactive)
[12]
  GI50: > 100 µM (inactive)
[13]
  GI50: > 100 µM (inactive)
[14]
  GI50: > 100 µM (inactive)
[15]
  GI50: > 100 µM (inactive)
[20]
  GI50: > 100 µM (inactive)
[18]
  GI50: > 100 µM (inactive)
[19]
  GI50: > 100 µM (inactive)

## Cn1ccnc1C(O)(c1nccn1C)c1nccn1C
[1]
  GI50: > 100 µM (inactive)
[3]
  GI50: > 100 µM (inactive)
[4]
  GI50: > 100 µM (inactive)
[5]
  GI50: > 100 µM (inactive)
[7]
  GI50: > 100 µM (inactive)
[8]
  GI50: > 100 µM (inactive)
[13]
  GI50: > 100 µM (inactive)
[14]
  GI50: > 100 µM (inactive)
[15]
  GI50: > 100 µM (inactive)
[17]
  GI50: > 100 µM (inactive)
[20]
  GI50: > 100 µM (inactive)
[19]
  GI50: > 100 µM (inactive)

## c1ccc(/N=C2\S/C(=N\C3CCCCC3)N(C3CCCCC3)\C2=N/c2ccccc2)cc1
[1]
  GI50: > 100 µM (inactive)
[2]
  GI50: > 100 µM (inactive)
[3]
  GI50: > 100 µM (inactive)
[4]
  GI50: > 100 µM (inactive)
[5]
  GI50: > 100 µM (inactive)
[6]
  GI50: > 100 µM
[9]
  GI50: > 100 µM (inactive)
[10]
  GI50: > 100 µM (inactive)
[11]
  GI50: > 100 µM (inactive)
[12]
  GI50: > 100 µM (inactive)
[13]
  GI50: > 100 µM (inactive)
[14]
  GI50: > 100 µM (inactive)
[15]
  GI50: > 100 µM (inactive)
[16]
  GI50: > 100 µM (inactive)
[17]
  GI50: > 100 µM (inactive)
[20]
  GI50: > 100 µM (inactive)
[18]
  GI50: > 100 µM (inactive)
[19]
  GI50: > 100 µM (inactive)

## CC1(C)CCC(C)(C)c2c1ccc(O)c2Cc1c(O)ccc2c1C(C)(C)CCC2(C)C
[1]
  GI50: 2.45 µM (inactive)
[2]
  GI50: 2.19 µM (inactive)
[3]
  GI50: 2.12 µM (inactive)
[5]
  GI50: 1.82 µM (inactive)
[6]
  GI50: 1.92 µM
[7]
  GI50: 1.98 µM (inactive)
[8]
  GI50: 1.95 µM (inactive)
[9]
  GI50: 2.21 µM (inactive)
[10]
  GI50: 1.97 µM (inactive)
[11]
  GI50: 2.02 µM (inactive)
[12]
  GI50: 2 µM (inactive)
[13]
  GI50: 1.78 µM (inactive)
[14]
  GI50: 2.7 µM (inactive)
[15]
  GI50: 2.13 µM (inactive)
[16]
  GI50: 1.79 µM (inactive)
[17]
  GI50: 2.25 µM (inactive)
[20]
  GI50: 1.87 µM (inactive)
[18]
  GI50: 2.31 µM (inactive)
[19]
  GI50: 2.01 µM (inactive)

## COc1cc(C2c3cc4c(cc3OC3(O)COC(=O)C23)OCO4)cc(OC)c1OC (configuration not stated)
[1]
  GI50: 26.9 µM (inactive)
[2]
  GI50: 42.3 µM (inactive)
[4]
  GI50: 70 µM (inactive)
[5]
  GI50: 67 µM (inactive)
[6]
  GI50: 53.2 µM
[7]
  GI50: 51.3 µM (inactive)
[9]
  GI50: 33 µM (inactive)
[10]
  GI50: 48.9 µM (inactive)
[11]
  GI50: 44.3 µM (inactive)
[12]
  GI50: 51.1 µM (inactive)
[13]
  GI50: 38.4 µM (inactive)
[14]
  GI50: 81.1 µM (inactive)
[15]
  GI50: 54 µM (inactive)
[16]
  GI50: 46.7 µM (inactive)
[17]
  GI50: > 100 µM (inactive)
[20]
  GI50: 31.3 µM (inactive)
[18]
  GI50: 34.7 µM (inactive)
[19]
  GI50: 25.2 µM (inactive)

## COC(=O)C1CCC(=O)N1C(=O)Cc1ccc(OC)cc1 (configuration not stated)
[1]
  GI50: > 100 µM (inactive)
[3]
  GI50: > 100 µM (inactive)
[5]
  GI50: > 100 µM (inactive)
[6]
  GI50: > 100 µM
[7]
  GI50: > 100 µM (inactive)
[8]
  GI50: > 100 µM (inactive)
[9]
  GI50: > 100 µM (inactive)
[10]
  GI50: > 100 µM (inactive)
[11]
  GI50: > 100 µM (inactive)
[12]
  GI50: > 100 µM (inactive)
[13]
  GI50: > 100 µM (inactive)
[15]
  GI50: > 100 µM (inactive)
[16]
  GI50: > 100 µM (inactive)
[17]
  GI50: > 100 µM (inactive)
[19]
  GI50: > 100 µM (inactive)

## COC(=O)C1CC=C(SC(=O)c2ccccc2)N1C(=O)c1ccccc1 (configuration not stated)
[1]
  GI50: > 100 µM (inactive)
[2]
  GI50: > 100 µM (inactive)
[3]
  GI50: > 100 µM (inactive)
[4]
  GI50: > 100 µM (inactive)
[6]
  GI50: > 100 µM
[7]
  GI50: > 100 µM (inactive)
[8]
  GI50: > 100 µM (inactive)
[9]
  GI50: > 100 µM (inactive)
[10]
  GI50: > 100 µM (inactive)
[11]
  GI50: > 100 µM (inactive)
[12]
  GI50: > 100 µM (inactive)
[13]
  GI50: > 100 µM (inactive)
[14]
  GI50: > 100 µM (inactive)
[15]
  GI50: > 100 µM (inactive)
[16]
  GI50: > 100 µM (inactive)
[17]
  GI50: > 100 µM (inactive)
[20]
  GI50: > 100 µM (inactive)
[19]
  GI50: 76 µM (inactive)
